Laboratory results as given in patent publication US11958871B2, “Inhibitors of bacterial glutaminyl cyclases for use in the treatment of periodontal and related diseases” (FRAUNHOFER-GESELLSCHAFT ZUR FÖRDERUNG DER ANGEWANDTEN …, priority 2018, dated 2024).
Where two headings read alike, the source gives them in different places.

Key:
Assay type in all cases: biochemical
[1] = molecular target: PgQC (Porphyromonas gingivalis, UniProt Q7MT37); experiment: Inhibitor assay for bacterial glutaminyl cyclase activity (fluorometric, H-Gln-AMC), PgQC
Procedure: (§1) QC activity was evaluated using H-Gln-AMC as the substrate (as previously described in Schilling et al., 2002).
(§2) The assay consists of varying concentration of the fluorogenic substrate and 0.5 U pyroglutaminyl aminopeptidase in 50 mM Tris-HCl, 50 mM NaCl at pH 8.0. After 10 minute incubation time at 30° C. reaction was initiated by addition of bacQC to a final volume of 125 μl reaction mixture. The excitation/emission wavelength was 380/460 nm. bacQC activity was determined from a standard curve of the fluorophore AMC under assay conditions. All determinations were carried out in 96 well microtiter plates (Fisher Scientific) at 30° C. using the FluoStar Optima (BMG Labtech).
(§3) For inhibitor testing, the sample composition was the same as described above, except for the addition of the putative inhibitory compound. […] Inhibitory constants were determined using different concentration of H-Gln-AMC varying from ¼ Km-2 Km. Final concentration of bacterial QC was in a range between 25 nM-50 nM.
(∘) represents reaction without inhibitor. Determinations were carried out in 50 mM Tris-HCl, 50 mM NaCl pH 8.0 and 1% (v/v) DMSO at 30° C.
(§4) The following compounds were synthesized as described in the Description of synthetic methods below. Average Ki values for the inhibition of PgQC (isolated and purified as described above), TfQC, PiQC and hQC were measured using the above inhibitor assay and are shown in. Ki refers to the average Ki values measured as described above, and Std(Ki) refers to the standard deviation of Ki.

[2] = tested on: bacterial glutaminyl cyclases; experiment: Inhibition of bacterial glutaminyl cyclases, summary statements
Procedure: as §3, §4

[3] = molecular target: hQC (Homo sapiens (Human), UniProt Q16769); experiment: Inhibitor assay for glutaminyl cyclase activity (fluorometric, H-Gln-AMC), hQC
Procedure: as §1, §2, §3, §4

[4] = molecular target: TfQC (Tannerella forsythia, UniProt G8UMP8); experiment: Inhibitor assay for bacterial glutaminyl cyclase activity (fluorometric, H-Gln-AMC), TfQC
Procedure: as §1, §2, §3, §4

[5] = average Ki ± Std(Ki), read-out: PgQC Ki
[6] = average Ki ± Std(Ki), read-out: hQC Ki
[7] = average Ki ± Std(Ki), read-out: TfQC Ki

Sequence of hQC (Q16769 29-361): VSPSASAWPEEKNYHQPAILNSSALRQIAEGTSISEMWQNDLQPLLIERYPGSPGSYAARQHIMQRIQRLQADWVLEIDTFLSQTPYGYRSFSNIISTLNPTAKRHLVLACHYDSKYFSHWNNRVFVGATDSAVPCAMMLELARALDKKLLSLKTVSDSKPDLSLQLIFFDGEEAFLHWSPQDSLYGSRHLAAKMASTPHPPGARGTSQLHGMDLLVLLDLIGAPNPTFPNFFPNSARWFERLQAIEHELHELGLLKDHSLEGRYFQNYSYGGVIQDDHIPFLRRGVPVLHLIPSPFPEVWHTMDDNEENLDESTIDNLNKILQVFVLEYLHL
Sequence of PgQC (Q7MT37 22-333 limits assumed): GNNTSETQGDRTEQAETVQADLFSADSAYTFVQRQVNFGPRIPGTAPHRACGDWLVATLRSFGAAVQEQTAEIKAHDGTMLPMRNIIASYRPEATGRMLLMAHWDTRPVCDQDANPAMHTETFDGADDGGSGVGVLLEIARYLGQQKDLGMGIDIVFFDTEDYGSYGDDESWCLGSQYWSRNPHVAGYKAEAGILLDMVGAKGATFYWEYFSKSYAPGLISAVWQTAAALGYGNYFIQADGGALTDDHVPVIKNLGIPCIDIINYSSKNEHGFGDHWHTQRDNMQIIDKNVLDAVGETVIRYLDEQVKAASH
Sequence of TfQC (G8UMP8 20-333 limits assumed): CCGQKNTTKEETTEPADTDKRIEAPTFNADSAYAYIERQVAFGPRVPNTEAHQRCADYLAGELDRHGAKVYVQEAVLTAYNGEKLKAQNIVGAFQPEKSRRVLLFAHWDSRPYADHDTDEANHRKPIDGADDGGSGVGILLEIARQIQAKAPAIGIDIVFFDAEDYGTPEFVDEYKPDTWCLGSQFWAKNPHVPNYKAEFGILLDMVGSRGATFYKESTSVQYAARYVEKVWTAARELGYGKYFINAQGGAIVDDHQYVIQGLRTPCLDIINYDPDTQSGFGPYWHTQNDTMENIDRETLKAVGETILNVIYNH

| Compound | Ki [1, 5] [nM] | also measured |
| --- | --- | --- |
| c1ccc(COc2ccc(CNc3cnc4[nH]cnc4c3)cc2)cc1 [Example 20, N-[(4-Benzyloxyphenyl)methyl]-3H-imidazo[4,5-b]pyridin-6-amine] | 42 ± 4 |  |
| c1ccc(CNc2ccc3nc[nH]c3n2)cc1 [Example 1, N-Benzylimidazo[4,5-b]pyridin-5-amine] | 1940 ± 318 | inhibitory activity against bacterial glutaminyl cyclases (in words) [2]: significant bacQC inhibitory activity and selectivity for PgQC over hQC; Ki [3, 6]: 8800 ± 127 nM; Ki ([3]; read-out: Ki, hQC (Table 5)): 8800 nM; Ki ([1]; read-out: Ki, PgQC (Table 5)): 1950 nM; Ki [4, 7]: 8260 ± 361 nM; Ki ([4]; read-out: Ki, TfQC (Table 5)): 8300 nM |
| N=C(N)NCCOc1ccc(CNc2cnc3[nH]cnc3c2)cc1 [Example 17, 1-(2-(4-((Imidazo[4,5-b]pyridin-6-ylamino)methyl)-phenoxy)ethyl)guanidine] | 14 ± 0.1 | Ki [3, 6]: 455 ± 14 nM; Ki [4, 7]: 123 ± 16 nM |
| c1nc2cc(NCc3ccc(OCCN4CCOCC4)cc3)cnc2[nH]1 [Example 26, N-[[4-(2-Morpholinoethoxy)phenyl]methyl]-3H-imidazo[4,5-b]pyridin-6-amine] | 33 ± 1 |  |
| COc1cc(F)c(CNc2cnc3[nH]cnc3c2)c(F)c1 [Example 22, N-[(2,6-Difluoro-4-methoxy-phenyl)methyl]-3H-imidazo[4,5-b]pyridin-6-amine] | 30 ± 1 |  |
| c1ccc(-c2ccc(CNc3cnc4[nH]cnc4c3)cc2)nc1 [Example 25, N-[[4-(2-Pyridyl)phenyl]methyl]-3H-imidazo[4,5-b]pyridin-6-amine] | 38 ± 3 |  |
| c1ccc(-c2ccc(CNc3cnc4[nH]cnc4c3)cc2)cc1 [Example 21, N-[(4-Biphenyl)methyl]-3H-imidazo[4,5-b]pyridin-6-amine] | 19 ± 1 |  |
| c1ccc(Oc2cccc(CNc3cnc4[nH]cnc4c3)c2)cc1 [Example 19, N-[(3-Phenoxyphenyl)methyl]-3H-imidazo[4,5-b]pyridin-6-amine] | 15 ± 0.1 |  |
| O=C(c1cc(Cl)cc(Cl)c1)N1CCc2[nH]cnc2C1 [MWT-S-00431, (3,5-dichlorophenyl-1,4,6,7-tetrahydro-5H-imidazo[4,5-c]pyridin-5-yl)methanone, reference compound] |  | Ki ([1]; 50 mM Tris-HCl, 50 mM NaCl pH 8.0, 1% (v/v) DMSO, 30° C., read-out: Ki, inhibition of the conversion of H-Gln-AMC by PgQC): 104 nM |
| CC(C)Oc1ccc(CNc2cnc3[nH]cnc3c2)cc1 [Example 18, N-[(4-Isopropoxyphenyl)methyl]-3H-imidazo[4,5-b]pyridin-6-amine] | 86 ± 5 |  |
| COc1cc(CNc2cnc3[nH]cnc3c2)cc2c1OCO2 [Example 23, N-[(7-Methoxy-1,3-benzodioxol-5-yl)methyl]-3H-imidazo-[4,5-b]pyridin-6-amine] | 65 ± 13 |  |
| c1nc2cc(NCc3ccc(N4CCOCC4)cc3)cnc2[nH]1 [Example 27, N-[(4-morpholinophenyl)methyl]-3H-imidazo[4,5-b]pyridin-6-amine] | 60 ± 2 |  |
| FC1(F)Oc2ccc(CNc3cnc4[nH]cnc4c3)cc2O1 [Example 24, N-[(2,2-Difluoro-1,3-benzodioxol-5-yl)methyl]-3H-imidazo-[4,5-b]pyridin-6-amine] | 67 ± 1 |  |
